{
  "source": "paper PMC11582173",
  "about": "“Synthesis, cytotoxicity, anti-inflammatory, anti-metastatic and anti-oxidant activities of novel chalcones incorporating 2-phenoxy-N-arylacetamide and thiophene moieties: induction of apoptosis in MCF7 and HEP2 cells” (Naunyn-Schmiedeberg's Archives of Pharmacology, 2024)",
  "tested_on": "IL-6 gene",
  "test": "Real-time PCR, IL-6 gene expression",
  "assay_type": "cell-based, human",
  "conditions": "relative to untreated control (1)",
  "experimental": "The expression level of the following six genes (Ki-67, Survivin, Interleukin-1 beta (IL-1B), Interleukin-6 (IL-6), Cyclooxygenase-2 (COX-2) and protein kinase B (AKT1)) was determined in MCF7 and HEP2 treated with the IC50 of compound 5c. The untreated cells were used as a negative control for comparison purposes. […] Ki-67 is a popular proliferation marker for human tumor cells. […] Survivin is an inhibitor of apoptotic protein (IAP) family member, which is essential for cell division. The lowering of the expression of survivin inhibited tumor development, triggered apoptosis, and made tumor cells more susceptible to radiation and chemotherapy (Albadari and Li [2023]). […] IL-1B is a pleiotropic mediator of inflammation, which is produced in response to a variety of stressors (Aarreberg et al. [2019]). […] IL-6 is a pro-inflammatory cytokine that plays a significant role in the proliferation and differentiation of human cells. It promotes the production of numerous proteins involved in acute inflammation (Uciechowski and Dempke [2020]). […]\nThe expression level of the following six genes (Ki-67, survivin, AKT1, IL-6, COX2, and IL-1B) was examined using real-time polymerase chain reaction (qPCR) (Mohamed et al. [2023a]). […] The cycle threshold (Ct) was determined automatically. […]",
  "data": [
    {"compound": "COc1ccc(NC(=O)COc2ccc(C=CC(=O)c3cccs3)cc2)cc1", "note": "[Compound 5c, N-(4-Methoxyphenyl)-2-(4-(3-oxo-3-(thiophen-2-yl)prop-1-en-1-yl)phenoxy)acetamide]", "values": [
      {"measurement": "IL-6 expression folding", "setting": "HEP2 cells treated with IC50 of 5c", "value": "0.464±0.08", "unit": "fold"},
      {"measurement": "IL-6 expression folding", "setting": "MCF7 cells treated with IC50 of 5c", "value": "0.814±0.079", "unit": "fold"}
    ]}
  ]
}
